{
  "source": "patent US5821231A",
  "about": "“CS-1 peptidomimetics, compositions and methods of using same” (Cytel Corporation, priority 1995, dated 1998)",
  "key": {"[1]": {"biological_target": "T1, VLA-4 (Homo sapiens, UniProt P05556+P13612)", "T1 sequence (P13612 34-1032)": "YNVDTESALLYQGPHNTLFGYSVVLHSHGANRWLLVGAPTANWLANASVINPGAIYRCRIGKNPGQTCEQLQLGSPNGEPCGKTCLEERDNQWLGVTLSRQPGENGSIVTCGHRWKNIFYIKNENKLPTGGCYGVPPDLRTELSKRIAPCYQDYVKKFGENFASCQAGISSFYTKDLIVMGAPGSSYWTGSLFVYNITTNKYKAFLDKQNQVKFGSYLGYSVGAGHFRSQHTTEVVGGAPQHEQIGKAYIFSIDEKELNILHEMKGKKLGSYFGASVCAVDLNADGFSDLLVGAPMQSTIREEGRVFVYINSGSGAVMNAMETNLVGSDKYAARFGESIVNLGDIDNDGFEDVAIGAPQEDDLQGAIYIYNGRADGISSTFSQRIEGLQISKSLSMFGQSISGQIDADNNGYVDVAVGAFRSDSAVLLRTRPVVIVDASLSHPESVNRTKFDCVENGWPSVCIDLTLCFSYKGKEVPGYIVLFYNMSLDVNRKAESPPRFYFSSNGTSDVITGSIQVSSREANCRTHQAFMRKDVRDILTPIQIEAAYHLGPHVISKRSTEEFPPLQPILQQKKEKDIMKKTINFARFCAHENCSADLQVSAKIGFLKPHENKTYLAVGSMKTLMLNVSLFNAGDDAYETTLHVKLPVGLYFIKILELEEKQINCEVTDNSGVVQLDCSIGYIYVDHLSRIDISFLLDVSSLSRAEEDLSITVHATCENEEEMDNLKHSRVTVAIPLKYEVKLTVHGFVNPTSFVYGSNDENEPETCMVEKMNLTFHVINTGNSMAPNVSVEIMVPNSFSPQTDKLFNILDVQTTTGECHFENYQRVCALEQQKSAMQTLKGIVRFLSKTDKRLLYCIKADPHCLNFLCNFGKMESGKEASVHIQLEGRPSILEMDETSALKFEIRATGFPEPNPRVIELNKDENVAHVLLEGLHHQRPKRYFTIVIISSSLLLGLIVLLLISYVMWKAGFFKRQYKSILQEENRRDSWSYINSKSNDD", "T1 sequence (P05556 21-798)": "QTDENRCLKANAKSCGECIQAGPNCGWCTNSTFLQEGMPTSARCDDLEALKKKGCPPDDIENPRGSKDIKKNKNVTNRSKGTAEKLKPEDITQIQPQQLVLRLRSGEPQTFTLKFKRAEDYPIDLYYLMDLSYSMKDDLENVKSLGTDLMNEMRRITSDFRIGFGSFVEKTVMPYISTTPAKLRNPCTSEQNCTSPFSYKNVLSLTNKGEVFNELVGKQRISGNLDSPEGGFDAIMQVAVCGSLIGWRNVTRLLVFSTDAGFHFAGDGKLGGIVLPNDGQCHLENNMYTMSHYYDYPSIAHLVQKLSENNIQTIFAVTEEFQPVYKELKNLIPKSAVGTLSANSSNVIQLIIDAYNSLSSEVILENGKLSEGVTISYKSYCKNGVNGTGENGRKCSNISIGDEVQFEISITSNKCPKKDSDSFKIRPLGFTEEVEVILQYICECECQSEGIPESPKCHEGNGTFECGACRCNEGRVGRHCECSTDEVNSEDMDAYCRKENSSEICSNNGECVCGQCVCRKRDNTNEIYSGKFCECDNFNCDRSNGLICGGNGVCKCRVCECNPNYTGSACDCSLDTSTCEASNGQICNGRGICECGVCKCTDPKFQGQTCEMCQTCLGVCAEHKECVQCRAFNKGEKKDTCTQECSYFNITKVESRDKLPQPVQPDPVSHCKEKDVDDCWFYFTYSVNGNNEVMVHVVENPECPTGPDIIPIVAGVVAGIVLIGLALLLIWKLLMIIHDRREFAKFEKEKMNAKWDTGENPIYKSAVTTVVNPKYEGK", "conditions": "cited from earlier work"}, "[2]": {"biological_target": "T1, VLA-4", "test": "In vitro binding assay: 51Cr-labeled Jurkat cells to solid phase-bound CS-1 compound (SEQ ID NO:1)", "format": "cell-based", "design": "inflammatory cells that contain the VLA-4 receptor [Jurkat cells; host or cells: Jurkat cells (human T lymphoblastic line)", "conditions": "binding inhibition potency (IC50) relative to standard compound of SEQ ID NO:3 = 1; about one-tenth or less assigned zero", "procedure": "Binding inhibition is measured here as a concentration of compound that inhibits one-half the binding between a standard number of Jurkat cells and a standard amount of CS-1 compound bound to the surface of a microtiter plate well. Those concentrations are conveniently expressed as IC50 values, smaller numbers indicating a lower concentration required to inhibit 50 percent binding and therefore greater potency. Further specifics of this assay are provided hereinafter.\nJurkat cells (ATCC TIB 152), a human T lymphoblastic line, labeled with ^51 chromium were used to assay in vitro binding inhibition provided by various compounds discussed herein.\nThe plates were prepared as follows: The 25-mer CS-1 compound (SEQ ID NO:1) dissolved at 0.5-1 μg/ml in a buffer of 0.1M NaHCO3 at pH 9.5 that also contained 10 μg/ml of bovine serum albumin (BSA) or a conjugate of the CS-1 compound linked to ovalbumin (CS-1-OVA) dissolved at 1-2.5 μg/ml in the same buffer was used as the substrate. Each well of the microtiter plates was coated with 50 μl of substrate or buffer alone for controls. The wells were permitted to dry out completely and were then rinsed twice with PBS at pH 7.4. Non-specific binding sites of each well were then blocked using 200 μl per well of RPMI/1 percent BSA for two hours at room temperature.\nJurkat cells (3-5×10^6 cells) were placed into a 15 ml Falcon™ round-bottom tube with a cap. The tube was centrifuged, and the extra medium was then removed.\nTwo hundred microliters of a ^51 Cr labeling solution were added to the centrifuged cells and maintained in contact with the cells for 90-120 minutes in a warm room. […] Longer contact times provide a greater amount of labeling but lower cell viability.\nThe labeled cells are washed with (i) complete medium, (ii) 1 mM EDTA/PBS and then (iii) RPM1/1 percent BSA free of serum components. The cells are centrifuged after each washing. The cells are finally resuspended in serum-free RPMI/1 percent BSA at a concentration of 1×10^6 viable cells/ml, which provides a concentration that is diluted by one-half in the assay.\nInhibitor compounds are prepared as stock solutions at 20 mg/ml in DMSO in 1.5 ml cryogenic screwcap vials, and were stored at -70° C. Using Flow™ round-bottom or V-bottom microtiter plates, the inhibitor compounds were prepared at twice the assay concentration in RPMI/1 percent BSA at 60 μl/well.\nFour initial dilutions were typically used.\nThe ^51 Cr-labeled cells ([…] at 60 μl/well) were then admixed with the diluted compound solutions. The admixtures were maintained at room temperature (about 22° C.) for 30 minutes.\nOne hundred microliters of each inhibitor compound/cell admixture were transferred to the substrate-coated wells. This was done in triplicate for each dilution. The resulting plates were incubated for 30 minutes at 37° C. and then washed gently three times with RPMI/1 percent BSA at 200 μl/well. Binding was observed microscopically, particularly after the second wash.\nThe bound cells were then lysed by the addition of a 0.5 percent solution of sodium dodecylsulfate in water at 100 μl/well. The resulting solutions were then processed for counting and calculation of IC50 values following usual procedures.\nThe data of Table 1 are normalized to the binding of SEQ ID NO: 3. […] Multiple assays for the same compound were averaged."}, "[3]": {"tested_on": "BALB/c mice", "test": "Adoptive transfer delayed type hypersensitivity in mice (oxazolone)", "format": "in vivo, mouse", "conditions": "expanded study; versus vehicle alone", "procedure": "An adoptive transfer delayed-type hypersensitivity murine model has been developed using splenic T cells primed to oxazolone. This model is described in Elices et al., Clin. Exp. Rheum., 11(Suppl. 8):577-580 (1993), whose procedures were followed here.\nThus, BALB/c mice were shaved on the belly and painted (50 μl on the belly and 5 μl on each paw) with three percent oxazolone in acetone/olive oil (4:1) at days zero and 1. At day 5, the mice were sacrificed, their spleens removed, and splenic T cells were obtained via nylon wool columns.\nNormal saline or saline containing 25×10^6 /animal of the oxazolone-immune T cells were separately injected into naive mice. The mice were then challenged by painting 10 μl of 2 percent oxazolone onto one ear each. All procedures were carried out under sterile conditions and in endotoxin-free buffers.\nPrior to challenge or saline injection, the mice were implanted with pumps that subcutaneously administered normal saline, normal saline containing the compound, Compound ID No. 896.52, N-phenylacetyl-Leu-Asp-Phe-D-Pro-NH2, or normal saline containing a compound with a scrambled sequence continually at 6 mg/kg/day for a 24-hour time period. The swelling diameter at the site of challenge or saline injection was measured with a microcaliper 24 hours thereafter.\nAn expanded study was carried out as described above except that a scrambled compound control was not used as a control for further inhibitor compounds of Table 1 with larger groups of mice. Statistical analyses were carried out versus injection of vehicle alone."}, "[4]": {"tested_on": "immune T cells", "conditions": "about 50 μg/ml admixed with immune T cells; Ferguson et al.; cited from earlier work"}, "[5]": {"tested_on": "Jurkat T cell line", "test": "Jurkat cell binding to frozen human rheumatoid arthritis synovial sections", "format": "cell-based", "conditions": "10-mer at 500 μg/ml", "procedure": "Binding studies were carried out using the Jurkat T cell line and frozen RA synovial sections. […] Stimulated MOLT-4 cells behaved similarly.\nThe absolute value of that IC50 value is about 0.5 μmolar."}, "[6]": {"tested_on": "New Zealand white rabbits", "test": "Treatment of asthmatic rabbits (house dust mite antigen challenge, crossover)", "format": "in vivo, rabbit", "conditions": "100 mg/kg nebulizer", "procedure": "Six New Zealand white rabbits were immunized with house dust mite antigen from birth through four months of age. Upon immunization, three rabbits received a single nebulizer administration of the inhibitor compound, Compound ID No. 1051.01, N-phenylacetyl-Leu-Asp-Phe-morpholinamide in aqueous 50 percent ethanol as diluent in an amount of 100 mg/kg, and the other three received diluent alone. All of the rabbits were challenged with house dust mite antigen about 15-30 minutes after administration of the compound, with those animals not receiving compound serving as controls.\nOnce immunized and challenged, the inflammatory state subsides to a basal level within about three weeks. The three animals used as controls were thereafter used as subjects for receipt of an inhibitor compound, and the three rabbits that initially received the compound can serve as controls.\nSuch a crossover study was done here. […]\nInitial pulmonary function, measured by dynamic compliance (Cdyn) and lung resistance (RL), and bronchoalveolar lavage (BAL) to obtain an effector cell count, here eosinophils, were conducted prior to administration of the compound or diluent for both portions of this crossover study. […]"}},
  "note": "Peptide text beside a SMILES is read from it. * marks the point of attachment. Morpholide = C1CN(*)CCO1; PhAc = O=C(Cc1ccccc1)*",
  "data": [
    {"compound": "Leu-Asp-Val [LDV]", "values": [
      {"measurement": "affinity of VLA-4 relative to native CS-1 25-mer", "setting": "[1]", "result": "at least two orders of magnitude lower affinity"}
    ]},
    {"compound": "CC(C)C[C@H](NC(=O)Cc1ccccc1)C(=O)N[C@@H](CC(=O)O)C(=O)N[C@@H](Cc1ccccc1)C(=O)N1CCN(CC(=O)O)CC1", "note": "[1111.06, .phi.Ac--Leu--Asp--Phe-4-N(carboxymethyl)piperazinamide]", "values": [
      {"measurement": "Relative Potency", "setting": "[2]", "result": 2600},
      {"measurement": "Percent Inhibition (post-challenge swelling)", "setting": "[3]", "result": 30, "unit": "%"}
    ]},
    {"compound": "CC[C@H](C)[C@H](NC(=O)[C@H](CCC(=O)O)NC(=O)[C@@H]1CCCN1C(=O)CN)C(=O)N[C@@H](CC(C)C)C(=O)N[C@@H](CC(=O)O)C(=O)N[C@H](C(=O)N1CCC[C@H]1C(=O)N[C@@H](CO)C(=O)N[C@H](C(=O)O)[C@@H](C)O)C(C)C", "note": "[SEQ ID NO:3, GPEILDVPST] (H-GPEILDVPST-OH)", "values": [
      {"measurement": "abrogation of a transferred immune response", "setting": "[4]", "result": "could abrogate a transferred immune response"},
      {"measurement": "inhibition of Jurkat cell adhesion to RA synovial sections", "setting": "[5]", "result": "could be inhibited"}
    ]},
    {"compound": "CC(C)C[C@H](NC(=O)Cc1ccccc1)C(=O)N[C@@H](CC(=O)O)C(=O)N[C@@H](Cc1ccccc1)C(=O)N1CCC(O)CC1", "note": "[1070.02, .phi.Ac--Leu--Asp--Phe-4-hydroxpiperidinamide]", "values": [
      {"measurement": "Percent Inhibition (post-challenge swelling)", "setting": "[3]", "result": 29, "unit": "%"}
    ]},
    {"compound": "CC(C)C[C@H](NC(=O)Cc1ccccc1)C(=O)N[C@@H](CC(=O)O)C(=O)N[C@@H](Cc1ccccc1)C(=O)N1CCOCC1", "note": "[1051.01, N-phenylacetyl-Leu-Asp-Phe-morpholinamide] (PhAc-Leu-Asp-Phe-Morpholide)", "values": [
      {"measurement": "Cdyn value over six hours after challenge", "setting": "[6]; FIG. 4A", "result": "stayed at about the initial value"},
      {"measurement": "RL values over six hours after challenge", "setting": "[6]; FIG. 4B", "result": "remained between the initial value and about 200% of that value"}
    ]},
    {"compound": "CC(C)C[C@H](NC(=O)Cc1ccccc1)C(=O)N[C@@H](CC(=O)O)C(=O)N[C@@H](Cc1ccccc1)C(=O)N1CCSCC1", "note": "[1111.02]", "values": [
      {"measurement": "Relative Potency", "setting": "[2]", "result": 450}
    ]}
  ]
}
